Patent US20220062279A1, “TREATMENT OF MOVEMENT DISORDERS” (Contera Pharma A/S, priority 2018, published 2022)

Tests used:
locomotor activity = assay: Open field test; conditions: buspirone 0.1-30 mg/kg i.p., pentobarbital 15 mg/kg i.p.; 60 minutes observation period; compared to vehicle
[1] = test system: unilaterally 6-OHDA-lesioned rats; assay: L-DOPA induced AIMs test in the 6-OHDA rat model; format: in vivo; conditions: previously shown by the applicant
[2] = test system: rats' motor performance and coordination; assay: Rotarod test; conditions: buspirone 0.1-30 mg/kg i.p., pentobarbital 15 mg/kg i.p., 5 or 30 min before test; compared to vehicle
Parkinson's disease = conditions: cited from earlier work
LID = conditions: cited from earlier work

| SMILES | Open field performance (locomotor activity) (locomotor activity) | L-DOPA-induced involuntary movements [1] | Rotarod performance (time spent on the accelerating rod) [2] | disability ratings (Parkinson's disease; 100 mg/day) | dyskinesia (Parkinson's disease; 100 mg/day) | effects on Parkinson's disease or dyskinesia (Parkinson's disease; 10-60 mg/day) | effects compared to placebo (LID; phase 2b and 3 studies) | LID (LID; pre-clinical and clinical studies) |
| --- | --- | --- | --- | --- | --- | --- | --- | --- |
| O=C1CC2(CCCC2)CC(=O)N1CCCCN1CCN(c2ncccn2)CC1 [buspirone, 8-[4-(4-pyrimidin-2-ylpiperazin-1-yl)butyl]-8-azaspiro[4.5]decane-7,9-dione] | dose dependently is able to affect performance in the open field test | dose dependently reduce L-DOPA-induced involuntary movements | affect performance in the rotarod model in a dose dependent manner | significant worsening of disability ratings | reduced dyskinesia | did not have any effects on Parkinson's disease or dyskinesia | – | – |
| CCCC(C)C1(CC)C(=O)NC(=O)NC1=O (stereo not shown) [Pentobarbital] | significantly reduced motor performance | – | significantly reduces time spent on the rotarod | – | – | – | – | – |
| Fc1ccc(-c2cncc(CNC[C@H]3CCc4ccccc4O3)c2)cc1 [sarizotan, 1-[(2R)-3,4-dihydro-2H-chromen-2-yl]-N-([5-(4-fluorophenyl)pyridin-3-yl]methyl)methanamine] | – | – | – | – | – | – | no significant effects | reduced LID |
